Source: patent US20120129875A1, “SUBSTITUTED QUINAZOLINES AS FUNGICIDES” (SYNGENTA CROP PROTECTION, LLC, priority 2009, published 2012)

Legend:
Type in all cases: in vivo
[1] = system: Botryotinia fuckeliana (Botrytis cinerea); assay: Botryotinia fuckeliana (Botrytis cinerea) / tomato / preventative (Botrytis on tomato); settings: tomato plants cv. Roter Gnom, inoculated two days after application, vs untreated control, read-out: disease control
Method: Botryotinia fuckeliana (Botrytis cinerea)/Tomato/Preventative (Botrytis on Tomato) 4-week old tomato plants cv. Roter Gnom are treated with the formulated test compound in a spray chamber. The test plants are inoculated by spraying them with a spore suspension two days after application. The inoculated test plants are incubated at 20° C. and 95% rh in a greenhouse and the percentage leaf area covered by disease is assessed when an appropriate level of disease appears on untreated check plants (5-6 days after application).

[2] = system: Mycosphaerella arachidis (Cercospora arachidicola); assay: Mycosphaerella arachidis (Cercospora arachidicola) / peanut / preventative; settings: peanut plants cv. Georgia Green, inoculated one day after application, vs untreated control, read-out: disease control
Method: Mycosphaerella arachidis (Cercospora arachidicola)/Peanut/Preventative 3-week old peanut plants cv. Georgia Green are treated with the formulated test compound in a spray chamber. The test plants are inoculated by spraying them with a spore suspension on their lower leaf surface one day after application. After an incubation period of 4 days under a plastic hood at 23° C. and 100% rh, the test plants are kept at 23° C./20° C. (day/night) and 70% rh in a greenhouse. The percentage leaf area covered by disease is assessed when an appropriate level of disease appears on untreated check plants (12-14 days after application).

Alternaria solani = Alternaria solani / tomato / preventative (Alternaria on tomato); settings: tomato plants cv. Roter Gnom, inoculated two days after application, vs untreated control, read-out: disease control
Method: Alternaria solani/Tomato/Preventative (Alternaria on Tomato) 4-week old tomato plants cv. Roter Gnom are treated with the formulated test compound in a spray chamber. The test plants are inoculated by spraying them with a spore suspension two days after application. The inoculated test plants are incubated at 22/18° C. (day/night) and 95% rh in a greenhouse and the percentage leaf area covered by disease is assessed when an appropriate level of disease appears on untreated check plants (5-7 days after application).

Plasmopara viticola = Plasmopara viticola / grape / preventative (grape downy mildew); settings: grape seedlings cv. Gutedel, inoculated one day after application, vs untreated control, read-out: disease control
Method: Plasmopara viticola/Grape/Preventative (Grape Downy Mildew)
5-week old grape seedlings cv. Gutedel are treated with the formulated test compound in a spray chamber. The test plants are inoculated by spraying a sporangia suspension on their lower leaf surface one day after application. The inoculated test plants are incubated at 22° C. and 100% rh in a greenhouse and the percentage leaf area covered by disease is assessed when an appropriate level of disease appears on untreated check plants (6-8 days after application).

[3] = system: Pyrenophora teres (Helminthosporium teres); assay: Pyrenophora teres (Helminthosporium teres) / barley / preventative (net blotch on barley); settings: barley plants cv. Regina, inoculated 2 days after application, vs untreated control, read-out: disease control
Method: Pyrenophora teres (Helminthosporium teres)/Barley/Preventative (Net Blotch on Barley) 1-week old barley plants cv. Regina are treated with the formulated test compound in a spray chamber. The test plants are inoculated by spraying them with a spore suspension 2 days after application. The inoculated test plants are incubated at 20° C. and 95% rh and the percentage leaf area covered by disease is assessed when an appropriate level of disease appears on untreated check plants (5-7 days after application).

[4] = system: Mycosphaerella graminicola (Septoria tritici); assay: Mycosphaerella graminicola (Septoria tritici) / wheat / preventative (Septoria tritici leaf spot on wheat); settings: Zymoseptoria tritici, wheat plants cv. Riband, inoculated one day after application, vs untreated control, read-out: disease control
Method: Mycosphaerella graminicola (Septoria tritici)/Wheat/Preventative (Septoria tritici Leaf Spot on Wheat) 2-week old wheat plants cv. Riband are treated with the formulated test compound in a spray chamber. The test plants are inoculated by spraying a spore suspension on them one day after application. After an incubation period of 1 day at 22° C./21° C. (day/night) and 95% rh, the test plants are kept at 22° C./21° C. (day/night) and 70% rh in a greenhouse. The percentage leaf area covered by disease is assessed when an appropriate level of disease appears on untreated check plants (16-19 days after application).

Measured: pest or weed control at 200 ppm

c1ccc(-c2cccc(-c3ncc4ccccc4n3)n2)cc1 [2/1]
≥ 80%: [1] | [2]

Cc1cccc(-c2cccc(-c3ncc4ccccc4n3)n2)c1 [2/3]
≥ 80%: Alternaria solani | Plasmopara viticola | [3]

c1cc(-c2ncc3ccccc3n2)nc(-c2cccc3ccccc23)c1 [2/6]
not listed: [4]
≥ 80%: all other assays above

Cc1cccc(-c2cccc(-c3ncc4ccccc4n3)n2)c1C [2/9]
≥ 80%: Alternaria solani | Plasmopara viticola | [3]

Clc1ccccc1-c1cccc(-c2ncc3ccccc3n2)n1 [2/13]
≥ 80%: Alternaria solani | [1] | [2] | Plasmopara viticola

Brc1ccccc1-c1cccc(-c2ncc3ccccc3n2)n1 [2/26]
≥ 80%: [2] | Plasmopara viticola

Fc1ccc(-c2cccc(-c3ncc4ccccc4n3)n2)c(F)c1 [2/28]
≥ 80%: Alternaria solani | Plasmopara viticola | [3]

CCc1ccccc1-c1cccc(-c2ncc3ccccc3n2)n1 [2/37]
≥ 80%: Alternaria solani | [1] | [2] | Plasmopara viticola

COc1cc(F)ccc1-c1cccc(-c2ncc3ccccc3n2)n1 [2/90]
≥ 80%: Alternaria solani | Plasmopara viticola | [3]

Cc1ccc(F)cc1-c1nc(-c2ncc3ccccc3n2)ccc1C [3/26]
not listed: [4]
≥ 80%: all other assays above

Cc1ccc(-c2ncc3ccccc3n2)nc1-c1ccccc1Br [3/36]
≥ 80%: Alternaria solani | [1] | Plasmopara viticola

Cc1ccc(-c2ncc3ccccc3n2)nc1-c1ccccc1Cl [3/46]
≥ 80%: Alternaria solani | [2] | Plasmopara viticola

COc1ccc(F)c(-c2nc(-c3ncc4ccccc4n3)ccc2C)c1 [3/56]
≥ 80%: Alternaria solani | [2] | Plasmopara viticola

Cc1ccc(-c2nc(-c3ncc4ccccc4n3)ccc2C)cc1 [3/69]
≥ 80%: [1] | Plasmopara viticola | [3]

Cc1ccc(-c2ncc3ccccc3n2)nc1-c1cc(Cl)cc(Cl)c1 [3/73]
≥ 80%: Plasmopara viticola | [3]

Cc1ccc(-c2ncc3ccccc3n2)nc1-c1ccc(Cl)cc1 [3/74]
≥ 80%: Alternaria solani | [4] | Plasmopara viticola | [3]

Cc1ccc(-c2ncc3ccccc3n2)nc1-c1ccccc1F [3/82]
≥ 80%: Alternaria solani | [4] | Plasmopara viticola | [3]

COc1cccc(-c2nc(-c3ncc4ccccc4n3)ccc2C)c1 [3/84]
≥ 80%: Alternaria solani | Plasmopara viticola | [3]

Cc1cc(C)cc(-c2nc(-c3ncc4ccccc4n3)ccc2C)c1 [3/86]
≥ 80%: Alternaria solani | Plasmopara viticola | [3]

COc1ccc(-c2nc(-c3ncc4ccccc4n3)ccc2C)cc1C [3/93]
≥ 80%: Alternaria solani | [4] | Plasmopara viticola | [3]

COc1ccc(Cl)cc1-c1nc(-c2ncc3ccccc3n2)ccc1C [3/95]
≥ 80%: Alternaria solani | Plasmopara viticola | [3]

Cc1ccccc1Oc1cccc(-c2ncc3ccccc3n2)n1 [4/22, 2-(6-o-tolyloxypyridin-2-yl)-quinazoline]
≥ 80%: Alternaria solani | Plasmopara viticola | [3]

Cc1ccc(-c2ncc3ccccc3n2)nc1Oc1ccc(F)cc1 [5/3]
≥ 80%: [2] | Plasmopara viticola | [3]

Cc1ccc(Oc2nc(-c3ncc4ccccc4n3)ccc2C)cc1 [5/17]
≥ 80%: [2] | Plasmopara viticola

Cc1ccc(Cc2cccc(-c3ncc4ccccc4n3)n2)cc1 [6/10]
≥ 80%: [4]

COc1cccc(Cc2cccc(-c3ncc4ccccc4n3)n2)c1 [6/15]
≥ 80%: [4] | Plasmopara viticola | [3]

Clc1ccc(Cc2cccc(-c3ncc4ccccc4n3)n2)cc1 [6/18]
≥ 80%: Alternaria solani | [4] | [3]

Cc1ccccc1Cc1cccc(-c2ncc3ccccc3n2)n1 [6/19]
≥ 80%: Alternaria solani | [4] | Plasmopara viticola | [3]

Cc1ccc(-c2ncc3ccccc3n2)nc1Cc1ccccc1Cl [7/19]
≥ 80%: [1] | Plasmopara viticola

Cc1ccc(-c2ncc3ccccc3n2)nc1C#CC1CC1 [8/1]
≥ 80%: Alternaria solani | [1] | [2] | Plasmopara viticola

COc1cccc(Sc2cccc(-c3ncc4ccccc4n3)n2)c1 [9/2]
≥ 80%: Alternaria solani | Plasmopara viticola | [3]

Clc1ccccc1Sc1cccc(-c2ncc3ccccc3n2)n1 [9/8]
≥ 80%: Alternaria solani | [3]

Cc1ccc2nc(-c3ccc(C)c(-c4ccccc4)n3)ncc2c1 [11/4]
≥ 80%: Alternaria solani | [3]

Cc1ccc(-c2ncc3cc(Cl)ccc3n2)nc1-c1ccccc1 [11/5]
≥ 80%: Plasmopara viticola | [3]
